Assay results reported in US4459290A, “C-23-Modified derivatives of OMT, pharmaceutical compositions and method of use” (priority 1982, dated 1984).
Values after ≈ are worked out from the molar mass of the structure shown. Read-outs that look alike come from different tables or passages of the source.

What was measured:
Assay type in all cases: cell-based
[1] = tested on: Pasteurella multocida 22A; assay: MIC, broth-dilution microtiter test (Table VII); details: Pasteurella multocida; P. multocida 22A; broth-dilution microtiter; read-out: MIC
How it was run: (§1)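 Each MIC derives from a dilution series, either on solid agar (Enterobacter aerogenes) or in liquid broth within microtiter plates (staphylococcal and Pasteurella strains).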

[2] = tested on: Pasteurella hemolytica 23C; assay: MIC, broth-dilution microtiter test (Table VII); details: Pasteurella, P. hemolytica 23C, read-out: MIC
How it was run: as §1

[3] = tested on: Pasteurella multocida 60A; assay: MIC, broth-dilution microtiter test (Table VII); details: Pasteurella multocida; P. multocida 60A, avian isolate; broth-dilution microtiter; read-out: MIC
How it was run: as §1

[4] = tested on: Pasteurella multocida 17E; assay: MIC, broth-dilution microtiter test (Table VII); details: Pasteurella multocida; P. multocida 17E, bovine isolate; broth-dilution microtiter; read-out: MIC
How it was run: as §1

[5] = tested on: Pasteurella multocida 68C; assay: MIC, broth-dilution microtiter test (Table VII); details: Pasteurella multocida; P. multocida 68C; broth-dilution microtiter; read-out: MIC
How it was run: as §1

Mycoplasma synoviae = assay: MIC, broth-dilution microtiter test (Table VII); details: Mycoplasmopsis synoviae; M. synoviae; broth-dilution microtiter; read-out: MIC
Procedure: (§2) Especially noteworthy is the improved activity against gram-negative bacteria for several derivatives when compared to the activity of OMT. […] The MIC's in Tables V and VI were determined by standard agar-dilution assays. The MIC's in Table VII were obtained using a conventional broth-dilution microtiter test.

[6] = tested on: Pasteurella hemolytica 22C; assay: MIC, broth-dilution microtiter test (Table VII); details: Pasteurella, P. hemolytica 22C, read-out: MIC
How it was run: as §1

Staphylococcus aureus = assay: MIC, broth-dilution microtiter test (Table VII); details: Staphylococcus aureus; S. aureus; broth-dilution microtiter; read-out: MIC
How it was run: as §1

[7] = tested on: Pasteurella hemolytica 41D; assay: MIC, broth-dilution microtiter test (Table VII); details: Pasteurella, P. hemolytica 41D, read-out: MIC
How it was run: as §1

Streptococcus sp. 80 = assay: MIC, broth-dilution microtiter test (Table VII); details: Streptococcus sp. 80; broth-dilution microtiter; read-out: MIC
Procedure: as §2

[8] = tested on: Citrobacter freundii CF17; assay: MIC, standard agar-dilution assay (Table VI)
Procedure: as §2

Proteus inconstans PR33 = assay: MIC, standard agar-dilution assay (Table VI); details: Providencia alcalifaciens
Procedure: as §2

[9] = tested on: Enterobacter aerogenes C32; assay: MIC, standard agar-dilution assay (Table VI); details: Klebsiella aerogenes
Procedure: as §2

Enterobacter cloacae EB5 = assay: MIC, standard agar-dilution assay (Table VI); details: E. cloacae EB5, agar dilution, read-out: MIC
Procedure: as §2

[10] = tested on: Pseudomonas aeruginosa X528; assay: MIC, standard agar-dilution assay (Table VI)
Procedure: as §2

Proteus morganii PR15 = assay: MIC, standard agar-dilution assay (Table VI); details: Morganella morganii; P. morganii PR15; agar dilution; read-out: MIC
Procedure: as §2

Serratia marcescens SE3 = assay: MIC, standard agar-dilution assay (Table VI); details: S. marcescens SE3, agar dilution, read-out: MIC
Procedure: as §2

Salmonella typhi 1335 = assay: MIC, standard agar-dilution assay (Table VI); details: Salmonella enterica
Procedure: as §2

Proteus rettgeri C24 = assay: MIC, standard agar-dilution assay (Table VI); details: Providencia rettgeri, P. rettgeri C24
Procedure: as §2

Serratia marcescens X99 = assay: MIC, standard agar-dilution assay (Table VI); details: S. marcescens X99, agar dilution, read-out: MIC
Procedure: as §2

[11] = tested on: Klebsiella pneumoniae X68; assay: MIC, standard agar-dilution assay (Table VI); details: X68
Procedure: as §2

[12] = tested on: Enterobacter aerogenes EB17; assay: MIC, standard agar-dilution assay (Table VI); details: Klebsiella aerogenes
Procedure: as §2

[13] = tested on: Salmonella heidelberg X514; assay: MIC, standard agar-dilution assay (Table VI); details: Salmonella enterica
Procedure: as §2

[14] = tested on: Pseudomonas aeruginosa X239; assay: MIC, standard agar-dilution assay (Table VI); details: P. aeruginosa X239, agar dilution, read-out: MIC
Procedure: as §2

Proteus rettgeri PR7 = assay: MIC, standard agar-dilution assay (Table VI); details: Providencia rettgeri; P. rettgeri PR7; agar dilution; read-out: MIC
Procedure: as §2

[15] = tested on: Pseudomonas aeruginosa Ps18; assay: MIC, standard agar-dilution assay (Table VI); details: P. aeruginosa Ps18, agar dilution, read-out: MIC
Procedure: as §2

[16] = tested on: Streptococcus pneumoniae Park I; assay: microbe, parasite or virus in culture; details: Streptococcus pneumoniae, read-out: MIC
Procedure: as §2

Streptococcus Group 9960 = assay: MIC, standard agar-dilution assay (Table V); details: GROUP9960
Procedure: as §2

[17] = tested on: Staphylococcus aureus X400; assay: MIC, standard agar-dilution assay (Table V); details: Staphylococcus aureus
Procedure: as §2

[18] = tested on: Staphylococcus aureus S13E; assay: MIC, standard agar-dilution assay (Table V); details: Staphylococcus aureus, S13E
Procedure: as §2

Escherichia coli EC14 = assay: MIC, standard agar-dilution assay (Table V); details: Escherichia coli
How it was run: (§3)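 Growth inhibition in liquid medium, in a routine microtiter broth-dilution series, gave the MIC against staphylococci and pasteurellae; the gram-negative enteric strain was tested by conventional agar dilution instead.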

[19] = tested on: Klebsiella pneumoniae KAE; assay: MIC, standard agar-dilution assay (Table V); details: Klebsiella pneumoniae
How it was run: as §3

[20] = tested on: Staphylococcus aureus X1.1; assay: MIC, standard agar-dilution assay (Table V); details: Staphylococcus aureus; S. aureus X1.1; agar dilution; read-out: MIC
Procedure: as §2

[21] = tested on: Staphylococcus aureus V41; assay: MIC, standard agar-dilution assay (Table V); details: Staphylococcus aureus, V41
Procedure: as §2

[22] = tested on: Streptococcus Group D X66; assay: MIC, standard agar-dilution assay (Table V)
Procedure: as §2

Escherichia coli N10 = assay: MIC, standard agar-dilution assay (Table V); details: Escherichia coli
How it was run: as §3

[23] = tested on: Staphylococcus epidermidis EPI1; assay: MIC, standard agar-dilution assay (Table V); details: Staphylococcus epidermidis; S. epidermidis EPI1; agar dilution; read-out: MIC
Procedure: as §2

[24] = tested on: Staphylococcus epidermidis EPI2; assay: MIC, standard agar-dilution assay (Table V); details: Staphylococcus epidermidis; S. epidermidis EPI2; agar dilution; read-out: MIC
Procedure: as §2

[25] = tested on: Klebsiella pneumoniae X26; assay: MIC, standard agar-dilution assay (Table V); details: Klebsiella pneumoniae
Procedure: as §2

Shigella sonnei N9 = assay: MIC, standard agar-dilution assay (Table V)
How it was run: as §3

SMILES	MIC [1] [µg/mL]	MIC [2] [µg/mL]	MIC [3] [µg/mL]	MIC [4] [µg/mL]	MIC [5] [µg/mL]	MIC (Mycoplasma synoviae) [µg/mL]	MIC [6] [µg/mL]	MIC (Staphylococcus aureus) [µg/mL]	MIC [7] [µg/mL]	MIC (Streptococcus sp. 80) [µg/mL]	MIC (Enterobacter cloacae EB5) [µg/mL]	MIC (Proteus morganii PR15) [µg/mL]	MIC (Serratia marcescens SE3) [µg/mL]	MIC (Salmonella typhi 1335) [µg/mL]	MIC (Proteus rettgeri C24) [µg/mL]	MIC (Serratia marcescens X99) [µg/mL]	MIC [11] [µg/mL]	MIC [14] [µg/mL]	MIC (Proteus rettgeri PR7) [µg/mL]	MIC [15] [µg/mL]	also measured
CCC1OC(=O)CC(O)C(C)C(OC2OC(C)C(O)C(N(C)C)C2O)C(CC=O)CC(C)C(=O)C=CC(C)=CC1CSc1ccccc1 (centres unmarked) [Compound 2, 23-Deoxy-23-(phenyl)thio-OMT]	1.56 (≈ 2.26 µM)	3.12 (≈ 4.52 µM)	1.56 (≈ 2.26 µM)	1.56 (≈ 2.26 µM)	1.56 (≈ 2.26 µM)	0.39 (≈ 0.565 µM)	3.12 (≈ 4.52 µM)	0.39 (≈ 0.565 µM)	1.56 (≈ 2.26 µM)	0.09 (≈ 0.13 µM)	64 (≈ 92.8 µM)	8 (≈ 11.6 µM)	64 (≈ 92.8 µM)	64 (≈ 92.8 µM)	16 (≈ 23.2 µM)	64 (≈ 92.8 µM)	32 (≈ 46.4 µM)	64 (≈ 92.8 µM)	16 (≈ 23.2 µM)	64 (≈ 92.8 µM)	MIC ([8]; CF17): 32 µg/mL (≈ 46.4 µM); MIC (Proteus inconstans PR33; PR33): 32 µg/mL (≈ 46.4 µM); MIC ([9]; C32): 32 µg/mL (≈ 46.4 µM); MIC ([10]; X528): 16 µg/mL (≈ 23.2 µM); MIC ([12]; EB17): 32 µg/mL (≈ 46.4 µM); MIC ([13]; X514): 64 µg/mL (≈ 92.8 µM); MIC [16]: 0.06 µg/mL (≈ 0.087 µM); MIC (Streptococcus Group 9960): 0.5 µg/mL (≈ 0.725 µM); MIC ([17]; S. aureus X400, methicillin-resistant strain, agar dilution, read-out: MIC): 0.125 µg/mL (≈ 0.181 µM); MIC [18]: 0.06 µg/mL (≈ 0.087 µM); MIC (Escherichia coli EC14; EC14): 32 µg/mL (≈ 46.4 µM); MIC [19]: 64 µg/mL (≈ 92.8 µM); MIC [20]: 0.125 µg/mL (≈ 0.181 µM); MIC [21]: 0.125 µg/mL (≈ 0.181 µM); MIC ([22]; Streptococcus Group D X66, agar dilution, read-out: MIC): 0.06 µg/mL (≈ 0.087 µM); MIC (Escherichia coli N10; N10): 32 µg/mL (≈ 46.4 µM); MIC [23]: 0.125 µg/mL (≈ 0.181 µM); MIC [24]: 0.125 µg/mL (≈ 0.181 µM); MIC ([25]; X26): 2 µg/mL (≈ 2.9 µM); MIC (Shigella sonnei N9): 16 µg/mL (≈ 23.2 µM)
CCC1OC(=O)CC(O)C(C)C(OC2OC(C)C(O)C(N(C)C)C2O)C(CC=O)CC(C)C(=O)C=CC(C)=CC1CF (centres unmarked) [Compound 15, 23-Deoxy-23-fluoro-OMT]	3.12 (≈ 5.2 µM)	6.25 (≈ 10.4 µM)	3.12 (≈ 5.2 µM)	3.12 (≈ 5.2 µM)	3.12 (≈ 5.2 µM)	0.39 (≈ 0.65 µM)	3.12 (≈ 5.2 µM)	1.56 (≈ 2.6 µM)	3.12 (≈ 5.2 µM)	≤ 0.78	> 128	64 (≈ 107 µM)	> 128	64 (≈ 107 µM)	32 (≈ 53.4 µM)	64 (≈ 107 µM)	64 (≈ 107 µM)	64 (≈ 107 µM)	32 (≈ 53.4 µM)	32 (≈ 53.4 µM)	MIC ([8]; C. freundii CF17, agar dilution, read-out: MIC): > 128 µg/mL; MIC (Proteus inconstans PR33; P. inconstans PR33, agar dilution, read-out: MIC): > 128 µg/mL; MIC ([9]; E. aerogenes C32, agar dilution, read-out: MIC): 64 µg/mL (≈ 107 µM); MIC ([10]; P. aeruginosa X528, agar dilution, read-out: MIC): 16 µg/mL (≈ 26.7 µM); MIC ([12]; E. aerogenes EB17, agar dilution, read-out: MIC): 64 µg/mL (≈ 107 µM); MIC ([13]; S. heidelberg X514, agar dilution, read-out: MIC): 64 µg/mL (≈ 107 µM); MIC ([16]; S. pneumoniae Park I, agar dilution): 0.125 µg/mL (≈ 0.208 µM); MIC (Streptococcus Group 9960): 0.5 µg/mL (≈ 0.834 µM); MIC ([17]; X400): 0.5 µg/mL (≈ 0.834 µM); MIC [18]: 0.5 µg/mL (≈ 0.834 µM); MIC (Escherichia coli EC14; E. coli EC14, agar dilution, read-out: MIC): 32 µg/mL (≈ 53.4 µM); MIC [19]: 64 µg/mL (≈ 107 µM); MIC [20]: 0.25 µg/mL (≈ 0.417 µM); MIC [21]: 0.5 µg/mL (≈ 0.834 µM); MIC [22]: 0.5 µg/mL (≈ 0.834 µM); MIC (Escherichia coli N10; E. coli N10, agar dilution, read-out: MIC): 32 µg/mL (≈ 53.4 µM); MIC [23]: 0.25 µg/mL (≈ 0.417 µM); MIC [24]: 0.5 µg/mL (≈ 0.834 µM); MIC ([25]; K. pneumoniae X26, agar dilution, read-out: MIC): 2 µg/mL (≈ 3.33 µM); MIC (Shigella sonnei N9): 32 µg/mL (≈ 53.4 µM)
